The values below come from ChEMBL document CHEMBL5696442, “Discovery of type II inhibitors of TGFβ-activated kinase 1 (TAK1) and mitogen-activated protein kinase kinase kinase kinase 2 (MAP4K2)” (J Med Chem, 2015).

Active and inactive are the calls of the source. No cut-off for these calls is given here.

As usually defined, the inhibition is the change of the read-out against control, counted positive when it falls.

Assay [1] addresses MAP/microtubule affinity-regulating kinase 3 (Homo sapiens) (UniProt P27448). Put plainly: Inhibition of MARK3 Lys1 labeling site in human A-375 cells at 0.5 uM by KiNativ Profiling analysis relative to control. In kind it is cell-based.
Assay [2] deals with Serine/threonine-protein kinase 33 (Homo sapiens) (UniProt Q9BYT3). Description: Inhibition of STK33 (unknown origin) at 1 uM by Ambit Kinomescan binding assay relative to control.
Serine/threonine-protein kinase 33 (Homo sapiens), sequence (Q9BYT3 whole entry, looked up): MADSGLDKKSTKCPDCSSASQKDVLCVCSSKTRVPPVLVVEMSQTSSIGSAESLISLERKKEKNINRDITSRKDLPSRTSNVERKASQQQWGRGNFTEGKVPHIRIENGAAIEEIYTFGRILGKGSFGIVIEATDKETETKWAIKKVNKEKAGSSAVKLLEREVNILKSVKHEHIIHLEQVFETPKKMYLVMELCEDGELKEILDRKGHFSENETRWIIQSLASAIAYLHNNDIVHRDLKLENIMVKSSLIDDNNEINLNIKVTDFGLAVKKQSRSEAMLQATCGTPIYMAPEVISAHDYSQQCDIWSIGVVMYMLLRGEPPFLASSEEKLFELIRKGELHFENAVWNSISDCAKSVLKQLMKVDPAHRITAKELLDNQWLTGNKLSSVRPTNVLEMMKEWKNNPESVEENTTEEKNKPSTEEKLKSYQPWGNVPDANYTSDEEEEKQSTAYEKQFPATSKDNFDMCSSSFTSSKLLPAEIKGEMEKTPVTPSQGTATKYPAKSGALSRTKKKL
For assay [3], the target named is Tyrosine-protein kinase Tec (Homo sapiens) (UniProt P42680). Description: Inhibition of TEC (unknown origin) at 10 uM by Ambit Kinomescan binding assay.
In assay [4] the target is T1, PAN2-PAN3 deadenylation complex subunit PAN3 (Homo sapiens) (UniProt Q58A45).
T1 sequence (whole entry): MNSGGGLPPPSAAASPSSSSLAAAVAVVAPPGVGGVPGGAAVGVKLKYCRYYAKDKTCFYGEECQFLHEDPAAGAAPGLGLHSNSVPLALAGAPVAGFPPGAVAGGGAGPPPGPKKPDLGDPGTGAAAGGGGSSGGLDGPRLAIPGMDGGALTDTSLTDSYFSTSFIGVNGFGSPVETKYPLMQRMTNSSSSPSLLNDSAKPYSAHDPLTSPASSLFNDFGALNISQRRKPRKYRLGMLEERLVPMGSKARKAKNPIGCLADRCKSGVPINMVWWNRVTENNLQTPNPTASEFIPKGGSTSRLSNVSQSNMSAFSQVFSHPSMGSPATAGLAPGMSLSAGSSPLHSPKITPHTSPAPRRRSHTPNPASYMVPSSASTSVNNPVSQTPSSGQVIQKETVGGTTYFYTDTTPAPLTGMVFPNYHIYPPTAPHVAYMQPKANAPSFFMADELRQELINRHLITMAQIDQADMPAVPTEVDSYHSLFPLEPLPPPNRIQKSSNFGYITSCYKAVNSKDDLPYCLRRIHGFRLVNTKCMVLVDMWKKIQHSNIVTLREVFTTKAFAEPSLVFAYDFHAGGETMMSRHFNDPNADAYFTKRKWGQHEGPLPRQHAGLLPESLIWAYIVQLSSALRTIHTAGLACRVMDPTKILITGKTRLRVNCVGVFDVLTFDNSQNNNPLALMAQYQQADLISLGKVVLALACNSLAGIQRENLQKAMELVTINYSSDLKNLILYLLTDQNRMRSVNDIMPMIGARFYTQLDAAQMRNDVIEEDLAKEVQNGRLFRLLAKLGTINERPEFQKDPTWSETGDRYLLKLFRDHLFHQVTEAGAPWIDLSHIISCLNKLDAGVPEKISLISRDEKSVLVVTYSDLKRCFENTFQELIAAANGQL
Put plainly: Inhibition of PAN3 ATP labeling site in human A-375 cells at 0.05 uM by KiNativ Profiling analysis relative to control. In kind it is cell-based.

Assay [5] concerns the target Tyrosine-protein kinase ABL1 (Homo sapiens, UniProt P00519). Put plainly: Inhibition of ABL ACT labeling site in human A-375 cells at 0.05 uM by KiNativ Profiling analysis relative to control. Type of assay: cell-based.
Assay [6] has as its target Myosin-IIIa (Homo sapiens) (UniProt Q8NEV4). Put plainly: Inhibition of MYO3A (unknown origin) at 10 uM by Ambit Kinomescan binding assay relative to control.
Assay [7] addresses Mitogen-activated protein kinase 3 (Homo sapiens) (UniProt P27361). Description: Inhibition of Erk1 Lys2 labeling site harbouring DLKPSNLLINTTCDLK in human A-375 cells at 0.05 uM by KiNativ Profiling analysis relative to control. In kind it is cell-based.
Assay [8] has as its target STE20-like serine/threonine-protein kinase (Homo sapiens) (UniProt Q9H2G2). Put plainly: Inhibition of SLK K2 labeling site harbouring DLKAGNILFTLDGDIK in human Huh-7 cells at 1 uM by KiNativ Profiling analysis relative to control. Type of assay: cell-based.
For assay [9], the target named is T2, Serine/threonine-protein kinase STK11 (Homo sapiens) (UniProt Q15831).
T2 sequence (whole entry): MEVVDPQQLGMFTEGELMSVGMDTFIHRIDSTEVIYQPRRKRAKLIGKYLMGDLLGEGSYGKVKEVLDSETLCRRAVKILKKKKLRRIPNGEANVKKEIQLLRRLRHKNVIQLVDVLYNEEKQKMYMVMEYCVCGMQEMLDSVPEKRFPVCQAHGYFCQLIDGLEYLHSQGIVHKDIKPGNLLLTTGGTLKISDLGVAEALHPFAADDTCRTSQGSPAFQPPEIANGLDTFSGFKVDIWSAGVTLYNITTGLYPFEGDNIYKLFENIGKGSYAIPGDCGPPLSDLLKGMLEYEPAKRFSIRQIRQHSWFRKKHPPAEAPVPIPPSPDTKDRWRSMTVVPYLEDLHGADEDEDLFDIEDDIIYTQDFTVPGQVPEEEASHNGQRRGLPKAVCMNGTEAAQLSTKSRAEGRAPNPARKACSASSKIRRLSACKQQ
Description: Inhibition of LKB1 K2 labeling site in human Huh-7 cells at 10 uM by KiNativ Profiling analysis relative to control. In kind it is cell-based.

For assay [10], the target named is eIF-2-alpha kinase GCN2 (Homo sapiens) (UniProt Q9P2K8). Put plainly: Inhibition of GCN2 domain2 Lys2 labeling site in human Huh-7 cell lysate at 1 uM by KiNativ Profiling analysis relative to control. Type of assay: subcellular.
For assay [11], the target named is Casein kinase I isoform epsilon (Homo sapiens) (UniProt P49674). Description: Inhibition of CK1e Lys2 labeling site in human Huh-7 cells at 1 uM by KiNativ Profiling analysis relative to control. In kind it is cell-based.
Casein kinase I isoform epsilon (Homo sapiens), sequence (P49674 whole entry, looked up, canonical isoform): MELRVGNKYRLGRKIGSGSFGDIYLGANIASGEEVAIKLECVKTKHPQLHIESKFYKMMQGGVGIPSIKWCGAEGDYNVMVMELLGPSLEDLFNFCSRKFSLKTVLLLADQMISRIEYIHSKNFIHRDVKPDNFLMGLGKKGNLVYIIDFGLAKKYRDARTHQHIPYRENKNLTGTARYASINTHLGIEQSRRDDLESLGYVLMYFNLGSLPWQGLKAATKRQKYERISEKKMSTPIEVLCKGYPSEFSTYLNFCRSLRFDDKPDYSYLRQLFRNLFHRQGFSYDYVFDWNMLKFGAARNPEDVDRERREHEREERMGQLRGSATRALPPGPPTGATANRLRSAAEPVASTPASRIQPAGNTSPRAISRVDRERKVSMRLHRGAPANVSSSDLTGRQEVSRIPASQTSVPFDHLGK
Assay [12] can be described thus: Inhibition of p70S6K Lys2 labeling site in human Huh-7 cell lysate at 1 uM by KiNativ Profiling analysis relative to control. Conditions: condition cancer.
In assay [13] the target is Serine/threonine-protein kinase 25 (Homo sapiens) (UniProt O00506). Description: Inhibition of YSK1 Lys2 labeling site in human Huh-7 cell lysate at 1 uM by KiNativ Profiling analysis relative to control. Type of assay: subcellular.
Serine/threonine-protein kinase 25 (Homo sapiens), sequence (O00506 whole entry, looked up): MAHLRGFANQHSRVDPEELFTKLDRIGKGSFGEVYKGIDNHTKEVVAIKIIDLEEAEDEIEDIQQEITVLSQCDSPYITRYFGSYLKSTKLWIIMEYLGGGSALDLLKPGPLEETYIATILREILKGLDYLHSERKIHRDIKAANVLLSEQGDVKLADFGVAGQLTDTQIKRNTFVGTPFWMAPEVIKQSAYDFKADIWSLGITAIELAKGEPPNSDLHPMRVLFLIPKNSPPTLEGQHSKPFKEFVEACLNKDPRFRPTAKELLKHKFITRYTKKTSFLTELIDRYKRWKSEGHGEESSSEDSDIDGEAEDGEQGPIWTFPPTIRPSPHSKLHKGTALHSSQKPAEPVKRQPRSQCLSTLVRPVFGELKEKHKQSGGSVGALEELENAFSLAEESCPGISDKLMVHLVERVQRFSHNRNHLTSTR
Assay [14] concerns the target Interferon-induced, double-stranded RNA-activated protein kinase (Homo sapiens) (UniProt P19525). Put plainly: Inhibition of PKR Lys2 labeling site in human Huh-7 cell lysate at 1 uM by KiNativ Profiling analysis relative to control. In kind it is subcellular.

Tyrosine-protein kinase ABL1, sequence (P00519 whole entry): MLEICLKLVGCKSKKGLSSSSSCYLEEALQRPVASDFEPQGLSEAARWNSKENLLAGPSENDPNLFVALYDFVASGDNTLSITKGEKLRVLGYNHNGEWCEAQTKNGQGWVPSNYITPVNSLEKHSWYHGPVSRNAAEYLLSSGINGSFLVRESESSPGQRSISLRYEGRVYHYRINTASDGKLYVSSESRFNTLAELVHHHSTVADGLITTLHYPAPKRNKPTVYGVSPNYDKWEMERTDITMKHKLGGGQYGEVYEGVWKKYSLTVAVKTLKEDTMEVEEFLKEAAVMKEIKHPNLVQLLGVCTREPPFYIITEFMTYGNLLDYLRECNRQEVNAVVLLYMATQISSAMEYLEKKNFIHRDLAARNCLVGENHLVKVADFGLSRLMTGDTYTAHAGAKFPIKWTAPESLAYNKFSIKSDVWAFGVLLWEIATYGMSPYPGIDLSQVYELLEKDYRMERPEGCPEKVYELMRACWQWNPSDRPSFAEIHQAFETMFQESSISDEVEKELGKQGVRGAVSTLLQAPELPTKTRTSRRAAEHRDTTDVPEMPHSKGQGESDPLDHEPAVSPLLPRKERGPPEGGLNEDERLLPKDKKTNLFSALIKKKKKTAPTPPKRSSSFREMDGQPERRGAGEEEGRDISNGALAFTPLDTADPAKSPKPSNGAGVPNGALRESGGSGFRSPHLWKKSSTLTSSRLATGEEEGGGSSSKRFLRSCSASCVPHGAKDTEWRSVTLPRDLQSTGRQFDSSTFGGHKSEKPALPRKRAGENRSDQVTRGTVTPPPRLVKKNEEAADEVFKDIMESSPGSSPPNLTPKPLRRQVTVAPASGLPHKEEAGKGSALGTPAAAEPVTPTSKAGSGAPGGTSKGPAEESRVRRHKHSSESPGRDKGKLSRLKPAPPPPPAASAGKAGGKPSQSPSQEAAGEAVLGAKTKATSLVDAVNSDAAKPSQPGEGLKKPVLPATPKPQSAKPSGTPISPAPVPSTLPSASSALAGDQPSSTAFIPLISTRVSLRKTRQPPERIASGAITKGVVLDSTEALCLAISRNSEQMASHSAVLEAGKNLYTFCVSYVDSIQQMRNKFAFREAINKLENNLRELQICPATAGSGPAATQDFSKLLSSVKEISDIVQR
Myosin-IIIa (Homo sapiens), sequence (Q8NEV4 whole entry): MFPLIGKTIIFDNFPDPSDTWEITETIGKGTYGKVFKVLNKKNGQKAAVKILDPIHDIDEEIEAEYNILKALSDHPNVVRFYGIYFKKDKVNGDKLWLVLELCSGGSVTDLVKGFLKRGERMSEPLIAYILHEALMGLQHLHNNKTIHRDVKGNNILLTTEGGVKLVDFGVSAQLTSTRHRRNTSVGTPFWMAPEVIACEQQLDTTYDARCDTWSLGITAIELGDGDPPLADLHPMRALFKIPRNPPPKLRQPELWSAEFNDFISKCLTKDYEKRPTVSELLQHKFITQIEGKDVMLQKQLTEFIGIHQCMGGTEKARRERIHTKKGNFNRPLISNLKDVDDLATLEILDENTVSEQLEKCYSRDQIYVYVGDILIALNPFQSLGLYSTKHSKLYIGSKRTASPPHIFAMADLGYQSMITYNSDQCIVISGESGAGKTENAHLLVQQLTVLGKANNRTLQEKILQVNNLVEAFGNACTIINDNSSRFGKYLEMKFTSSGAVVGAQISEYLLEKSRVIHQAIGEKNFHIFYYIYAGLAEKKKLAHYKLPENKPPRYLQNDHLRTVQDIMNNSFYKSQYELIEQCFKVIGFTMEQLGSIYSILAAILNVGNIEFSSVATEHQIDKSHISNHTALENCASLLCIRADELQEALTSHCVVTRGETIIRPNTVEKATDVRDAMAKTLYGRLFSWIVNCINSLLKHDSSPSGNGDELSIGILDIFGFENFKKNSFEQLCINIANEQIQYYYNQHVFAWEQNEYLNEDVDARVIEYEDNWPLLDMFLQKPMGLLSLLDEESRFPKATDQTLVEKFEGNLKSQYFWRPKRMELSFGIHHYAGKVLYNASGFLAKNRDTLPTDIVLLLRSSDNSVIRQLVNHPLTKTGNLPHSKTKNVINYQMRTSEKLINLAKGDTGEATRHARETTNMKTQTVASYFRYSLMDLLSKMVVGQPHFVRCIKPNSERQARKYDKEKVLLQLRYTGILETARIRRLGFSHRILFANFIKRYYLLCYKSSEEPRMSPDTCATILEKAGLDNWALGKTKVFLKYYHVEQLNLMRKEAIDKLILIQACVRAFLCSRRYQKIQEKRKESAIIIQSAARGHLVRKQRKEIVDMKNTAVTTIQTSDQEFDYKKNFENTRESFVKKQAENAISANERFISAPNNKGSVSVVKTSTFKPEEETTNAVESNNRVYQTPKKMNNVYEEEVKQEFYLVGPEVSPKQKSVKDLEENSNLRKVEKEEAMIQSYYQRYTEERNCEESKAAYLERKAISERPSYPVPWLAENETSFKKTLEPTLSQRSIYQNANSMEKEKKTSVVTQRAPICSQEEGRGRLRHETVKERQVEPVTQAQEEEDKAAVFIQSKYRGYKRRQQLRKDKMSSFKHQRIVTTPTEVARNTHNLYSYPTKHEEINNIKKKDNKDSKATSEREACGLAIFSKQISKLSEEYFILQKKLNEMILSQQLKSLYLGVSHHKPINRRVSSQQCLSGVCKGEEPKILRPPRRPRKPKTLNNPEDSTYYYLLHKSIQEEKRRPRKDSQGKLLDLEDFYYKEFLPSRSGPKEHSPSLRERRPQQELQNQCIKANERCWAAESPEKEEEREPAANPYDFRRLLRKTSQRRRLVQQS
Interferon-induced, double-stranded RNA-activated protein kinase (Homo sapiens), sequence (P19525 whole entry): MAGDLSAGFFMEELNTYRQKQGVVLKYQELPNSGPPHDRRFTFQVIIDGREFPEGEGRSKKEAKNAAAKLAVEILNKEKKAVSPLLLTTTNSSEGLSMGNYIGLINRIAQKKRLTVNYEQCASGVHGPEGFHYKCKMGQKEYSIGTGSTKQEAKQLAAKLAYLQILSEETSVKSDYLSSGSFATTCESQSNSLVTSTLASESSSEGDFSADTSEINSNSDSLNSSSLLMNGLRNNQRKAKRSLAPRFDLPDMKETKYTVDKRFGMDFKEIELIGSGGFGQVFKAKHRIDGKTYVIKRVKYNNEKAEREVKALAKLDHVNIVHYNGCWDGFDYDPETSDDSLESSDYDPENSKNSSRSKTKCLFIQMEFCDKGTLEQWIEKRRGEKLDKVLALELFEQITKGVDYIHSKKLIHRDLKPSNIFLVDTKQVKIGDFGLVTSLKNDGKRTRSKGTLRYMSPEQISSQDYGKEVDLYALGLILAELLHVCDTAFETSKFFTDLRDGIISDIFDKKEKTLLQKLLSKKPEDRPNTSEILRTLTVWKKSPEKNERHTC
Mitogen-activated protein kinase 3 (Homo sapiens), sequence (P27361 whole entry): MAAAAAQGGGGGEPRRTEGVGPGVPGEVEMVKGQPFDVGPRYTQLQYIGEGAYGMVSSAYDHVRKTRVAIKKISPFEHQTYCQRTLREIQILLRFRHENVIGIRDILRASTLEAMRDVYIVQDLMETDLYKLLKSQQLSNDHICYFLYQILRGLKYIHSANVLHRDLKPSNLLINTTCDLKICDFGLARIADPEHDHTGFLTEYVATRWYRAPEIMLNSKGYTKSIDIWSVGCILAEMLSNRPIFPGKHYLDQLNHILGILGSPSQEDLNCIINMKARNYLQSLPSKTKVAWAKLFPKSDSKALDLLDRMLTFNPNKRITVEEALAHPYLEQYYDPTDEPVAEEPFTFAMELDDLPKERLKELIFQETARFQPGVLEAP

Regarding `CCN1CCN(Cc2ccc(NC(=O)c3ccc(C)c(/C=C/c4cnc5[nH]ccc5c4OC)c3)cc2C(F)(F)F)CC1`, the inhibition in [1] is 12.3%; in assay [2] it was 78%.

As to `CCN1CCN(Cc2ccc(NC(=O)c3ccc(C)c(Oc4ccnc5[nH]ccc45)c3)cc2C(F)(F)F)CC1`, the inhibition result in assay [3] was “inactive”. Also, the inhibition turned out to be 7% in assay [4]; 88.5% in assay [5]; 6.4% in assay [6]; 0.9% in assay [7]; 66.5% in assay [8]; 11.6% in assay [9].

On to `CNc1cc(Oc2cc(C(=O)Nc3cc(N4CCN(C)CC4)cc(C(F)(F)F)c3)ccc2C)ncn1`, for which the inhibition is 2.5% in assay [10], 39.1% in [11], -0.3% in assay [13] and -3.6% in assay [14]. Also, in assay [12], the inhibition at 1 µM was 4.9%.
